7 compounds from paper PMC10820527, “Synthesis, Characterization, and Investigation of Anti-Inflammatory and Cytotoxic Activities of Novel Thiourea Derivatives of Naproxen” (Pharmaceutics, 2023) can be followed below.

One data set deals with healthy male rats. As to the kind of experiment: Acute oral toxicity assessment (OECD Guidelines No. 423). The class given is in vivo, rat. The settings on record: single per os dose 10 mg/kg, sacrifice after 14 days, (absolute organ weight × 100%)/body weight. The protocol:
The acute oral toxicity was assessed in healthy male rats (n = 24, three rats per group, body weight 180–200 g) according to a previously established protocol and the OECD Guidelines No. 423 [37, 38].
Animals were randomly assigned to the following groups: control group—rats that received single dose of 1% DMSO and experimental groups—rats that received compounds 8–14 per os in the single dose of 10 mg/kg dissolved in 1% DMSO. All rats were fasted prior to administration of compounds and during 3 h following the treatment.
Afterwards, rats were kept in single cages and observed once daily during 14 days for clinical signs of toxicity. All behavioral changes and any signs of toxicity were recorded (fur and skin, urination (color), feces consistency, eyes, salivation, any alterations in behavior pattern). Additionally, food and water intake and the body weight were measured daily over 14 days. After accomplishing the monitoring period, rats were sacrificed, and organ weight (liver, kidney, stomach, and heart) was recorded. Relative organ weight was calculated as follows: (absolute organ weight × 100%)/body weight of rat on the day of sacrifice(1)

A further data set addresses T1, COX-2 (Homo sapiens, UniProt P35354).
T1 construct: purchased Abcam
T1 sequence (P35354 18-604): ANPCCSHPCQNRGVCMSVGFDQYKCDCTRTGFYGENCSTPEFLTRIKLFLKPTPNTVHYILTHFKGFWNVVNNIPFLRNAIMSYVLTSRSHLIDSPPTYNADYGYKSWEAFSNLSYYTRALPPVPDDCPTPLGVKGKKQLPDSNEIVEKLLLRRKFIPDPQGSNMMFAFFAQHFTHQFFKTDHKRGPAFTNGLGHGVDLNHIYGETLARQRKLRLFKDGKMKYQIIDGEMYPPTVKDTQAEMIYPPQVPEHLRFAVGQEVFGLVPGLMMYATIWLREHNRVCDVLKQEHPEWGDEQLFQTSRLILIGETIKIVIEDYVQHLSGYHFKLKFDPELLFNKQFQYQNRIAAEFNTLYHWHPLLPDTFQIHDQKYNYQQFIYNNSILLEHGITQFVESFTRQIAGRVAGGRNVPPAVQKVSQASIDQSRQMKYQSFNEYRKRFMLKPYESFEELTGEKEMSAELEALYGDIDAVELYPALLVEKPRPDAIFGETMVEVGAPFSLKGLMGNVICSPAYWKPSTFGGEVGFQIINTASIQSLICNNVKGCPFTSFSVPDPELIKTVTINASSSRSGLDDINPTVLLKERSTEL
As to the kind of experiment: Fluorometric COX-2 inhibitor screening kit. It is filed as biochemical. As to conditions: mean of two measurements with standard error, read-out: COX-2 Percent of Inhibition. The protocol:
The COX-2 and 5-LOX inhibitory potential of the tested compounds was evaluated using a fluorometric COX-2 and 5-LOX inhibitor screening kit (Abcam, Cambridge, UK). These tests are based on determining the presence of prostaglandin G2 (a product of COX enzyme activity) or an intermediate generated by the enzyme 5-LOX, using fluorometric detection. The mentioned experiments were performed according to the manufacturer’s instructions.
For the determination of COX-2 inhibitory potential of tested compounds, stock solutions (5 mM in DMSO) were diluted with the same solvent (test solutions). The test solutions were further diluted with COX assay buffer by mixing 2 µL of the corresponding test solution and 8 µL of COX assay buffer. For the preparation of inhibitory control (IC), celecoxib (2 µL) and COX assay buffer (8 µL) were mixed. Solvent control (SC) was prepared by mixing DMSO (2 µL) and the COX assay buffer (8 µL), enzyme control (EC) was 10 µL of COX assay buffer, while the samples (S) were 10 µL of diluted test solutions. IC, SC, EC, and S were transferred into corresponding wells. For the determination of 5-LOX inhibitory potential of tested compounds, stock solutions of the same concentration (5 mM) were prepared in DMSO. These solutions were further diluted with the same solvent to obtain the test solutions, which were added into the appropriate wells (2 µL). EC, SC, and IC were prepared by adding 2 µL of the assay buffer, DMSO, and zileuton into corresponding wells, respectively.
The fluorescence of the samples was measured kinetically at 25 °C (COX-2: Ex/Em = 535/587 nm, during 10 min; 5-LOX: Ek/Em = 500/536 nm during 20 min) using a Synergi LX multi-mode microplate reader (BioTek, Shoreline, WA, USA).

The test system of another data set is HCT 116. As to the kind of experiment: MTT cytotoxicity assay, HCT 116. The settings on record: for IC50: Homo sapiens, mean ± SD. It is filed as cell-based, human. The protocol:
Three cancer cell lines (MDA-MB-231, HCT116 and HeLa; i.e., human breast cancer cells, human colorectal cancer cells, and human cervical cancer cells, respectively), and one non-malignant fibroblast MRC-5 cell line (control) were used in this study. The American Type Cell Collection (ATCC, Manassas, VA, USA) provided all examined cell lines. The cells were grown in a complete medium made up of high-glucose DMEM media supplemented with 10% fetal bovine serum and […] L-glutamine (both from Sigma-Aldrich, USA). The cells were cultured in 25 cc flasks (Thermo Fischer Scientific, Waltham, MA, USA) at 37 °C with 100% humidity in a 5% CO2 atmosphere.
The MTT test was used to assess the cytotoxicity of compounds 1–14 [44]. The cytotoxicity of naproxen was also investigated due to its clinical use and structural similarity. Throughout the exponential development period, cells were taken from culture flasks and counted, and 5 × 10^3 cells/well were planted into 96-well culture plates. Following that, the cell lines were treated with varying doses of the investigated chemicals (1–14), naproxen ([…]), and fresh complete media as a control. All evaluated cells were incubated for 24, 48, and 72 h at 37 °C in an environment containing 5% CO2 and 100% humidity. Following incubation, each well’s culture media was taken out, each well received an addition of MTT solution at a final concentration of 0.5 mg/mL, and the cells were left to incubate for an additional four hours. The MTT solution was then withdrawn carefully, and the formazan crystals were dissolved in DMSO. After shaking the plates for 10 min, absorbance at 595 nm was measured using a multiplate reader (Zenyth 3100, Anthos Labtec Instruments, Salzburg, Austria). All concentrations of the tested compounds were performed in three separate wells of the microtiter plates and in three separate experiments. The results were reported as a ratio to the control value, untreated cells. IC50 values were also determined using Microsoft Office Excel 2021. The percentage of viable cells was estimated by dividing the readout absorbance value in the wells containing treated cells by the average absorbance value measured in the wells containing untreated cells, and multiplying the result by 100 [44]. % of the viable cells = ((absorbance of treated cell-absorbance of blank)/(absorbance of untreated cell-absorbance of blank)) × 100(3)
(Tetrazolium dyes change colour on reduction, which living cells bring about.)

Broadly, the inhibition is the share of the control response that was lost under treatment. For orientation: IC50 means the midpoint of a concentration-inhibition curve. A high value points to lower potency. Turning to `COc1ccc2cc([C@H](C)C(=O)NC(=S)Nc3ccccc3)ccc2c1` [Compound 8, (S)-2-(6-methoxynaphthalen-2-yl)-N-(phenylcarbamothioyl)propanamide], in the data set with healthy male rats, the “Relative organ weight, Heart” value is 0.31 ± 0.01; the “Relative organ weight, Kidney” value turned out to be 0.32 ± 0.02; the “Relative organ weight, Liver” value worked out at 2.65 ± 0.15; the “Relative organ weight, Stomach” value came out at 0.51 ± 0.06. For the same compound, on COX-2, the inhibition at 10 µM is 36.2 ± 16.4%. The IC50 in the data set on HCT 116 (HCT-116, 24 h) was > 200 µM. Besides, the IC50 in the data set with HCT 116 (HCT-116, 48 h) was > 200 µM. Also, in the data set with HCT 116 (HCT-116, 72 h), the IC50 came to 101 ± 15.5 µM.

Turning to `COc1ccc2cc([C@H](C)C(=O)NC(=S)Nc3ccc(C)cc3)ccc2c1` [Compound 9, (S)-2-(6-methoxynaphthalen-2-yl)-N-(p-tolylcarbamothioyl)propanamide], in the data set on healthy male rats, the “Relative organ weight, Heart” value was 0.29 ± 0.03; the “Relative organ weight, Kidney” value was 0.29 ± 0.03; the “Relative organ weight, Liver” value was determined as 3.01 ± 0.27; the “Relative organ weight, Stomach” value is given as 0.56 ± 0.03. For the same compound, the inhibition at 10 µM on COX-2 came out at 26.8 ± 6.07%. Moreover, in the data set with HCT 116, the “Cytotoxic effect against the HCT 116 cell line (in words)” value (shortened to “Cytotoxic effect”) is “moderate cytotoxic effects”. Besides, the half-maximal inhibitory concentration (IC50) with HCT 116 (HCT-116, 24 h) was > 200 µM. This compound also returned an IC50 with HCT 116 (HCT-116, 48 h) of 105 ± 14.8 µM. Besides, 52.9 ± 8.1 µM corresponded to half-maximal inhibition with HCT 116 (HCT-116, 72 h) (IC50).

Take `COc1ccc2cc([C@H](C)C(=O)NC(=S)Nc3ccccc3C)ccc2c1` [Compound 10, (S)-2-(6-methoxynaphthalen-2-yl)-N-(o-tolylcarbamothioyl)propanamide]: in the data set on healthy male rats, the “Relative organ weight, Heart” value was 0.34 ±0.04; the “Relative organ weight, Kidney” value is 0.31 ± 0.04; the “Relative organ weight, Liver” value turned out to be 2.67 ± 0.15; the “Relative organ weight, Stomach” value stood at 0.58 ± 0.04. Also, the inhibition at 10 µM on COX-2 was 12.6 ± 4.99%. Also, in the data set on HCT 116, the “Cytotoxic effect” value is “moderate cytotoxic effects”. In the data set with HCT 116 (HCT-116, 24 h), this compound had an IC50 of 120 ± 8.8 µM. The compound further had an IC50 in the data set with HCT 116 (HCT-116, 48 h) of 97.2 ± 6.8 µM. Besides, the IC50 with HCT 116 (HCT-116, 72 h) turned out to be 33.3 ± 5.5 µM.

With `COc1ccc2cc([C@H](C)C(=O)NC(=S)Nc3ccccc3OC)ccc2c1` [Compound 11, (S)-2-(6-methoxynaphthalen-2-yl)-N-((2-methoxyphenyl)carbamothioyl)propanamide], in the data set with healthy male rats, the “Relative organ weight, Heart” value turned out to be 0.32 ± 0.02; the “Relative organ weight, Kidney” value came to 0.33 ± 0.05; the “Relative organ weight, Liver” value was 2.83 ± 0.20; the “Relative organ weight, Stomach” value worked out at 0.54 ± 0.05. Besides, the inhibition at 10 µM at COX-2 was 16.2 ± 13.7%. In addition, the IC50 in the data set on HCT 116 (HCT-116, 24 h) is > 200 µM. Also, the IC50 in the data set with HCT 116 (HCT-116, 48 h) was > 200 µM. Further, the IC50 with HCT 116 (HCT-116, 72 h) is > 200 µM.

For `COc1ccc2cc([C@H](C)C(=O)NC(=S)Nc3ccccc3F)ccc2c1` [Compound 12, (S)-N-((2-fluorophenyl)carbamothioyl)-2-(6-methoxynaphthalen-2-yl)propanamide], in the data set with healthy male rats, the “Relative organ weight, Heart” value was found to be 0.35 ± 0.03; the “Relative organ weight, Kidney” value was found to be 0.32 ± 0.04; the “Relative organ weight, Liver” value is 2.76 ± 0.36; the “Relative organ weight, Stomach” value turned out to be 0.59 ± 0.05. In addition, the inhibition at 10 µM on COX-2 worked out at 13.8 ± 6.41%. Besides, the “Cytotoxic effect” value in the data set with HCT 116 is on record as “moderate cytotoxic effects”. Also, the IC50 with HCT 116 (HCT-116, 24 h) is > 200 µM. In the data set with HCT 116 (HCT-116, 48 h), the midpoint of inhibition, the IC50, lay at 159 ± 17.5 µM. Moreover, the concentration for half-maximal inhibition (IC50) in the data set on HCT 116 (HCT-116, 72 h) came out at 68.8 ± 9.5 µM.

Consider `COC(=O)[C@H](Cc1ccccc1)NC(=S)NC(=O)[C@@H](C)c1ccc2cc(OC)ccc2c1` [Compound 13, Methyl (((S)-2-(6-methoxynaphthalen-2-yl)propanoyl)carbamothioyl)phenylalaninate], for which, in the data set with healthy male rats, the “Relative organ weight, Heart” value worked out at 0.30 ± 0.04; the “Relative organ weight, Kidney” value was 0.28 ± 0.06; the “Relative organ weight, Liver” value is listed as 3.09 ± 0.27; the “Relative organ weight, Stomach” value came to 0.50 ± 0.06. In addition, the inhibition at 10 µM on COX-2 was determined as 23.1 ± 9.83%. In addition, the IC50 in the data set with HCT 116 (HCT-116, 24 h) was > 200 µM. Besides, the IC50 in the data set with HCT 116 (HCT-116, 48 h) is > 200 µM. In the data set with HCT 116 (HCT-116, 72 h), the IC50 was 99.6 ± 4.9 µM.

Turning to `COC(=O)[C@H](Cc1c[nH]c2ccccc12)NC(=S)NC(=O)[C@@H](C)c1ccc2cc(OC)ccc2c1` [Compound 14, Methyl (((S)-2-(6-methoxynaphthalen-2-yl)propanoyl)carbamothioyl)tryptophanate], in the data set with healthy male rats, the “Relative organ weight, Heart” value came out at 0.31 ± 0.02; the “Relative organ weight, Kidney” value amounted to 0.29 ± 0.04; the “Relative organ weight, Liver” value was 2.03 ± 0.42; the “Relative organ weight, Stomach” value stood at 0.53 ± 0.04. Also, the inhibition at 10 µM at COX-2 was found to be 29.8 ± 12.1%. For the same compound, in the data set on HCT 116, the “Cytotoxic effect” value is “moderate cytotoxic effects”. The compound also had an IC50 in the data set on HCT 116 (HCT-116, 24 h) of 150 ± 7.6 µM. The same compound returned an IC50 in the data set on HCT 116 (HCT-116, 48 h) of 108 ± 12.7 µM. In the data set with HCT 116 (HCT-116, 72 h), this compound showed an IC50 of 47.1 ± 5.4 µM.
